Assays:
[1] = tested on: oxygenated mice with inflammatory lung injury; settings: mouse, in vivo
A2AR gene deficient mice = assay: Selectivity control: lung inflammation in A2AR gene deficient mice; format: in vivo; settings: dosing regimen used to treat WT mice (data not shown)
Excerpt: Thus, the exogenously added selective, synthetic A2AR agonist compensated for the loss of endogenously formed adenosine in oxygenated and inflamed lungs thereby decreasing lung injury and rescuing mice from death.

endotoxin-treated mice = assay: Lung injury in endotoxin-treated mice; format: in vivo
[2] = tested on: mice with acute inflammatory lung injury; settings: mouse, in vivo
[3] = i.t. injections, endotoxin-treated mice (data not shown)

| SMILES | number of deaths (oxygenation-induced death) [1] | lung inflammation in A2AR gene deficient mice (A2AR gene deficient mice) | pulmonary PMN sequestration (endotoxin-treated mice; histological examination) | lung tissue damage as assessed by lung injury score (endotoxin-treated mice; histological examination (not shown)) | accumulation of PMN (endotoxin-treated mice; [3]) | lung gas exchange (endotoxin-treated mice; [3]) | lung injury (endotoxin-treated mice; [3]) | lung vascular permeability (endotoxin-treated mice; [3]) | production of reactive oxygen metabolites (endotoxin-treated mice; [3]) | BAL fluid protein [2] | alveolo-capillary permeability (protein recovered by broncho-alveolar lavage) [2] | arterial pO2 after return to normal atmosphere [2] | death in short-term assays [2] | deaths of mice with inflamed lungs versus 21% ambient oxygen [2] | inflammatory lung injury (exudate protein in alveolar spaces, arterial blood oxygen tension) [2] | mice that died during 15 min equilibration period in normal atmosphere [2] |
| --- | --- | --- | --- | --- | --- | --- | --- | --- | --- | --- | --- | --- | --- | --- | --- | --- |
| CCNC(=O)[C@H]1O[C@@H](n2cnc3c(N)nc(NCCc4ccc(CCC(=O)O)cc4)nc32)[C@H](O)[C@@H]1O [CGS21680] | dramatically reduced | did not affect | inhibition | fourfold decrease | significantly decreased | improved | significantly inhibited | less pronounced increases | reduced |  |  |  |  |  |  |  |
| O=O [oxygen] |  |  |  |  |  |  |  |  |  | small accumulation | much more pronounced increase | decrease | did not result in death | Five times more | exacerbation | three out of seven |

Reference: patent US8455437B2, “Method to predict and prevent oxygen-induced inflammatory tissue injury” (The United States of America, as Represented by the …, priority 2005, dated 2013)
